Assay results: patent US7217511B2, “Methods of increasing antibiotic production in Streptomyces by deletion of the scbA gene” (Plant Bioscience Limited, priority 2000, dated 2007)

Legend:
S. coelicolor M145 = system: S. coelicolor M145
Protocol: (§1) Bioassay using spore suspension of M145(top), M751(left bottom) and M752(right bottom) as indicator strain and spotted with 1 μg of SCB1. The plates were incubated at 30° C. for 20 h (left panel) or 40 h (right panel).
(§2) γ-butyrolactones were isolated from liquid or solid media by extracting the culture supernant or the agar with ethylacetate. The ethylacetate was evaporated and the sample was resuspended in 100% methanol for use in a bioassay or for HPLC analysis. Bioassay and HPLC analysis were conducted as described previously (Takano et al., 2000).

[1] = system: S. coelicolor M751 (ΔscbA)
Protocol: as §1, §2

[2] = system: S. coelicolor M752 (ΔscbR)
Protocol: as §1, §2

[3] = system: S. coelicolor M751 (ΔscbA); remark: listed apart in the source

ScbR, sequence (as listed by the source): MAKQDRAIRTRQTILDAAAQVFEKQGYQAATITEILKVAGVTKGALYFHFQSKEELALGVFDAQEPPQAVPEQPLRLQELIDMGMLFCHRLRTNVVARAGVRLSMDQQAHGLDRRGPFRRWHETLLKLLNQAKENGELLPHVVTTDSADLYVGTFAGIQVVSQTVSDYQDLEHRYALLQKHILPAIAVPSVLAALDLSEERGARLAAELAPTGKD

Molecule | Formation of the DNA-protein complex (DNA-binding activity of ScbR) (ScbR) | Response to exogenous SCB1 (antibiotic production in lawn) (S. coelicolor M145) | Effect of high concentrations of SCB1 on antibiotic production (lighter halo around the point of application) [1] | Response to exogenous SCB1 (antibiotic production in lawn) [2] | Level of scbR transcription [3] | scbA transcription [3]
2-isocaryloyl-3R-hydroxymethyl-γ-butyrolactone [A-factor] | failed to inhibit | – | – | – | – | –
CC(C)CCCC[C@@H](O)[C@@H]1C(=O)OC[C@H]1CO [SCB1] | – | responded in the expected way | inhibitory effect | did not respond | marked increase | not restored
